{"source": "patent US20170369414A1", "about": "“O-Quinone Compounds as Agents Neutralising Nitric Oxide” (Institut des Substances Végétales, priority 2015, published 2017)"}
{"experiment": "Method for evaluating the neutralization of nitric oxide (amperometric probe, real time)", "settings": "phosphate buffer pH 7.4, 25° C., between T1 and T2=T1+30 s, corrected for solvent control", "procedure": "For this, the nitric oxide is prepared in a separated container by achieving reduction of sodium nitrite with ferrous sulfate and carry away with a nitrogen gas stream into another container containing the product to be tested in solution in a buffer. In this solution, is placed an amperometric probe which measures in real time the current produced by the presence of nitric oxide in solution.\nNitric oxide is prepared extemporaneously in a container A, obturated with a flexible polymeric plug through which pass an entering tubing and an exiting tubing, with an inner diameter comprised between 50 μm and 300 μm, but particularly of 100 μm (cf. FIG. 1), with a volume comprised between 10 ml and 100 ml, but particularly of 30 ml, by adding a volume comprised between 0.1 and 2 ml, but particularly of 0.5 ml of an aqueous solution of sodium nitrite (NaNO2, ref. Sigma-Aldrich 237213) at a concentration comprised between 0.10% and 2.00% but particularly of 0.70%, at a volume comprised between 5 ml and 80 ml of the following aqueous solution:\nThe container B in which is measured the nitric oxide is a container opaque to light, with a double jacket allowing circulation of water maintaining the temperature at 25° C., obturated with a plug through which pass the tubing stemming from the container A and an exhaust tubing (cf. FIG. 1) with a volume comprised between 10 ml and 100 ml, preferably 30 ml which receives a volume comprised between 5 ml and 80 ml, preferably 20 ml, of an aqueous solution of phosphate buffer at pH 7.4.\nOnce they are mixed, the solutions are stirred for the whole period of the measurement with a magnetic stirrer, in container A and in container B.\nNitrogen gas is admitted at a flow rate comprised between 20 ml/min and 120 ml/min, preferably 80 ml/min in the bottom of the container A. The nitrogen thereby carries away the nitric oxide through the exiting tubing of container A as far as into container B where it is measured with a device provided for this purpose equipped with an amperometric probe provided with a specific membrane (apparatus of ref. TBR 1025 from World Precision Instruments, probe ISO-NOP). The probe thereby delivers a variable current between 10 and 1,000 nA proportional to the concentration of nitric oxide in the tested solution, of the order of magnitude of μM. The electric current produced by the probe under the influence of nitric oxide is recorded with a suitable device.\nBefore any measurement, the probe is calibrated by measuring the current produced by releasing known increasing amounts of nitric oxide. It is thus checked that there exists a linear relationship between the electric current produced by the probe and the molar concentration of nitric oxide and the correspondence between this electric current and the molar concentration of nitric oxide is determined. For this, 20 ml of the following aqueous solution is placed in the container B disconnected from the container A during the calibration period:\n50 μl, 100 μl, 150 μl and 200 μl of a solution of sodium nitrite (NaNO2, ref. Sigma-Aldrich 237213) are then successively added to a concentration of 360 μM.\nThe curve giving the correspondence between the nitric oxide concentration in the reaction medium and the electric intensity produced by the probe expressed in nA is plotted for each addition of the nitric oxide solution.\nDuring a typical measurement, 20 ml of the ferrous sulfate solution are placed in the container A and 20 ml of phosphate buffer at pH 7.4 are placed in the container B. In the container A, nitrogen gas is admitted for 10 mins, which passes in transit towards the container B, in order to remove the dissolved oxygen present in the solutions of the containers A and B. After these 10 mins, the recording of the measurement of nitric oxide is launched.\nAt time T0, the sodium nitrite solution is injected into the container A through the flexible polymeric plug by means of a syringe equipped with a needle.", "units": {"E, neutralization effect of nitric oxide (nitric oxide neutralized per second and per mg of product)": "µM/s/mg"}}
{"compound": "C[C@@H]1O[C@@H](O[C@@H]2[C@@H](O)[C@H](OCCc3ccc(O)c(O)c3)O[C@H](CO)[C@H]2OC(=O)/C=C/c2ccc(O)c(O)c2)[C@H](O)[C@H](O)[C@H]1O", "note": "[Verbascoside]", "E, neutralization effect of nitric oxide (nitric oxide neutralized per second and per mg of product)": 0.058}
{"compound": "O=C(/C=C/c1ccc(O)c(O)c1)O[C@H](Cc1ccc(O)c(O)c1)C(=O)O", "note": "[Rosmarinic acid]", "E, neutralization effect of nitric oxide (nitric oxide neutralized per second and per mg of product)": 0.043}
{"compound": "O=C(O)/C=C\\C1=CC(=O)C(=O)C=C1", "note": "[caffeoyl-quinone, ortho-quinone of caffeic acid]", "E, neutralization effect of nitric oxide (nitric oxide neutralized per second and per mg of product)": 24.36}
{"compound": "(+) catechin hydrate", "E, neutralization effect of nitric oxide (nitric oxide neutralized per second and per mg of product)": 0.13}
{"compound": "O=C(O)/C=C/c1ccc(O)c(O)c1", "note": "[Caffeic acid]", "E, neutralization effect of nitric oxide (nitric oxide neutralized per second and per mg of product)": 0.957}
{"compound": "O=C(O)/C=C/c1ccc(O)cc1", "note": "[p-coumaric acid]", "E, neutralization effect of nitric oxide (nitric oxide neutralized per second and per mg of product)": 0.13}
{"compound": "O.O.O=c1c(O)c(-c2ccc(O)c(O)c2)oc2cc(O)cc(O)c12", "note": "[Quercetin, Quercetin dihydrate]", "E, neutralization effect of nitric oxide (nitric oxide neutralized per second and per mg of product)": 0.087}
{"compound": "O=c1cc(-c2ccc(O)c(O)c2)oc2cc(O)cc(O)c12", "note": "[Luteolin]", "E, neutralization effect of nitric oxide (nitric oxide neutralized per second and per mg of product)": 0.174}
